The results in this text go back to the OligoGym collection.

Where “and” joins values, the source holds several entries; their conditions need not be identical. Identical values can stand only once. After the bases stand the sugars from the 5' end (letter, count) and the backbone: PS all phosphorothioate, else s phosphorothioate and o phosphodiester by linkage. Methylation of C is not given here. e = 2'-O-(2-methoxyethyl) (MOE); k = constrained ethyl (cEt); d = 2'-deoxy (DNA)

For this series, the target named is IRF5. To be noted: ASO.

“AGGAGTGAGACGAGCA (sugars kkddddddddkekekk, PS)” came in with a target mRNA inhibition (KARPAS-229, 4 µM) of 35%.

For the setting “KARPAS-229, 4 µM”, “GCTTGGTCTTGACCTC (sugars kdddddddddkekeke, PS)” returned a target mRNA inhibition of 17%.

Sequence “CACCACTGTGTACCCC (sugars kkddddddddkekekk, PS)” came in with a target mRNA inhibition (KARPAS-229, 4 µM) of 0%.

Regarding “GTCTGGCCCTTTTGGA (sugars kkkddddddddkekek, PS)”, where the note is “KARPAS-229, 4 µM”, the target mRNA inhibition is 0%.

Regarding “GTGTATTTCCCTGTCT (sugars k2 d9 e3 k2, PS)”, the target mRNA inhibition (KARPAS-229, 4 µM) came out at 16%.

For the sequence “GTCTAGTGTCATGGAA (sugars kddddddddddkekek, PS)”, the target mRNA inhibition (KARPAS-229, 4 µM) turned out to be 42%.

Sequence AATGCAACATCCATCA (sugars k3 d10 k3, PS) displayed a target mRNA inhibition (KARPAS-229, 4 µM) of 0%.

As for “CATTCCATATACACAC (sugars kkddddddddkekekk, PS)”, for the setting “KARPAS-229, 4 µM”, the target mRNA inhibition was 17%.

With “CTGTCACATCTCCACA (sugars k3 d9 k3 e1, PS)”, under “KARPAS-229, 4 µM”, the target mRNA inhibition is 28%.

For “ACATCTCCACATCAGT (sugars kkdddddddddkdkdk, PS)”, the target mRNA inhibition (KARPAS-229, 4 µM) is 28%.

On to “TTCTGCAGGGAGTCAG (sugars kdddddddddkekeke, PS)”, for which, where the note is “KARPAS-229, 4 µM”, the target mRNA inhibition worked out at 0%.

Regarding “ACATCTCCACATCAGT (sugars k2 d9 e3 k2, PS)”, the target mRNA inhibition (KARPAS-229, 4 µM) was 41%.

In turn, TAATAGGAGTGAGACG (sugars k3 d10 k3, PS) yielded a target mRNA inhibition (KARPAS-229, 4 µM) of 12%.

TTAAGGGCACAGCGCA (sugars k3 d10 k3, PS) gave a target mRNA inhibition (KARPAS-229, 4 µM) of 0%.

Sequence ATAGGAGTGAGACGAG (sugars k3 d10 k3, PS) displayed a target mRNA inhibition (KARPAS-229, 4 µM) of 16%.

In turn, “GTCTTGACCTCCCGCT (sugars k3 d9 k3 e1, PS)” registered a target mRNA inhibition (KARPAS-229, 4 µM) of 51%.

For the setting “KARPAS-229, 4 µM”, “CCTTCTGCAGGGAGTC (sugars kdddddddddkekeke, PS)” yielded a target mRNA inhibition of 0%.

Where the note is “KARPAS-229, 4 µM”, “TTGTCTAGTGTCATGG (sugars kkkddddddddkdkdk, PS)” came in with a target mRNA inhibition of 36%.

For the setting “KARPAS-229, 4 µM”, “CTTCTGCAGGGAGTCA (sugars kkdddddddddkekek, PS)” yielded a target mRNA inhibition of 0%.

Take “CCAATTTTGCATTCCA (sugars k2 d9 e3 k2, PS)”: where the note is “KARPAS-229, 4 µM”, the target mRNA inhibition came out at 30%.

ACCCAATGCAACATCC (sugars k3 d10 k3, PS) showed a target mRNA inhibition (KARPAS-229, 4 µM) of 33%.

“GAGTCATGGGCTGAGG (sugars k3 d9 k3 e1, PS)”: the target mRNA inhibition (KARPAS-229, 4 µM) was 0%.

In the case of “ACCACTGTGTACCCCA (sugars kekdddddddddeekk, PS)”, the target mRNA inhibition is 28% (KARPAS-229, 0.44444 µM); 45% (KARPAS-229, 1.33333 µM); 63% and 62% (KARPAS-229, 4 µM); 77% (KARPAS-229, 12 µM).

With “CTGTCACATCTCCACA (sugars kkdddddddddkekek, PS)”, where the note is “KARPAS-229, 4 µM”, the target mRNA inhibition worked out at 23%.

“GCATTCCATATACACA (sugars kkkdddddddddkeke, PS)” had a target mRNA inhibition (KARPAS-229, 4 µM) of 45%.

As to “CAGGTTCTTGGACTCT (sugars kkkdddddddddkeke, PS)”, the target mRNA inhibition (KARPAS-229, 4 µM) is 1%.

With CATTCCATATACACAC (sugars k3 d10 k3, PS), the target mRNA inhibition (KARPAS-229, 4 µM) came to 28%.

Regarding “CACATCTCCACATCAG (sugars k3 d9 k3 e1, PS)”, the target mRNA inhibition (KARPAS-229, 4 µM) was found to be 25%.

Regarding “ACTGACACAGGCGGAT (sugars kkddddddddddkeke, PS)”, the target mRNA inhibition (KARPAS-229, 4 µM) turned out to be 0%.

In turn, “GCATTCCATATACACA (sugars kkkddddddddkdkdk, PS)” came in with a target mRNA inhibition (KARPAS-229, 4 µM) of 0%.

Consider ACCACTGTGTACCCCA (sugars k3 d10 k3, PS), for which the target mRNA inhibition by setting is: (KARPAS-229, 0.44444 µM) 16%; (KARPAS-229, 1.33333 µM) 41%; (KARPAS-229, 4 µM) 75% and 57%; (KARPAS-229, 12 µM) 65%.

As for “AGGTTCTTGGACTCTC (sugars kkkddddddddkdkdk, PS)”, the target mRNA inhibition (KARPAS-229, 4 µM) was 0%.

Take “CCTTCTGCAGGGAGTC (sugars kekdddddddddeekk, PS)”: under “KARPAS-229, 4 µM”, the target mRNA inhibition came out at 14%.

For the sequence “GTCTTGACCTCCCGCT (sugars kkddddddddddkeke, PS)”, the target mRNA inhibition reads like this: (KARPAS-229, 0.44444 µM) 38%; (KARPAS-229, 1.33333 µM) 47%; (KARPAS-229, 4 µM) 65% and 69%; (KARPAS-229, 12 µM) 78%.

For the setting “KARPAS-229, 4 µM”, “AGTCATGGGCTGAGGC (sugars kddddddddddkekek, PS)” had a target mRNA inhibition of 25%.

Under “KARPAS-229, 4 µM”, “AGGAAGTGAGTCTCAA (sugars k3 d9 k3 e1, PS)” gave a target mRNA inhibition of 47%.

Sequence “CCAATGCAACATCCAT (sugars k3 d9 k3 e1, PS)” came in with a target mRNA inhibition (KARPAS-229, 4 µM) of 16%.

Under “KARPAS-229, 4 µM”, “GCTTGGTCTTGACCTC (sugars k3 d9 k3 e1, PS)” came in with a target mRNA inhibition of 29%.

For the sequence “CCAATTTTGCATTCCA (sugars kkkddddddddkekek, PS)”, the target mRNA inhibition (KARPAS-229, 4 µM) is 42%.

Consider “CTTGGTCTTGACCTCC (sugars kdddddddddkekeke, PS)”, for which the target mRNA inhibition (KARPAS-229, 4 µM) was 0%.

For the setting “KARPAS-229, 4 µM”, “GAGTGAGACGAGCAAA (sugars kkddddddddkekekk, PS)” showed a target mRNA inhibition of 17%.

Take GTAATAGGAGTGAGAC (sugars k3 d10 k3, PS): the target mRNA inhibition (KARPAS-229, 4 µM) is 11%.

As to “TGTCTAGTGTCATGGA (sugars k2 d8 e4 k2, PS)”, the target mRNA inhibition (KARPAS-229, 4 µM) was 54%.

On to “ATCACCACTGTGTACC (sugars kddddddddddkekek, PS)”, for which the target mRNA inhibition (KARPAS-229, 4 µM) came out at 0%.

For the setting “KARPAS-229, 4 µM”, “ACATCTCCACATCAGT (sugars kkkddddddddkekek, PS)” had a target mRNA inhibition of 14%.

As for “TGAGTCATGGAGCTGAG (sugars kdddddddddkekeked, PS)”, the target mRNA inhibition (KARPAS-229, 4 µM) is 0%.

“CCAATGCAACATCCAT (sugars kkddddddddkekekk, PS)” gave a target mRNA inhibition (KARPAS-229, 4 µM) of 0%.

With “TCTGATATGATACCTA (sugars k3 d2 k1 d7 k3, PS)”, the target mRNA inhibition is, setting by setting: (A-431, 0.00412 µM) 4%; (A-431, 0.01225 µM) 8%; (A-431, 0.03704 µM) 36%; (A-431, 0.11111 µM) 54%; (A-431, 0.33333 µM) 69%; (A-431, 1 µM) 74%.

For the sequence “CACTGACACAGGCGGA (sugars kkkddddddddkekek, PS)”, the target mRNA inhibition (KARPAS-229, 4 µM) was found to be 0%.

For the setting “KARPAS-229, 4 µM”, “ACCATTCTATGCCTTT (sugars kkkddddddddkekek, PS)” returned a target mRNA inhibition of 15%.

As for “TTCTGCAGGGAGTCAG (sugars kddddddddddkekek, PS)”, the target mRNA inhibition (KARPAS-229, 4 µM) was determined as 4%.

Sequence GCCTTCTGCAGGGAGT (sugars k3 d10 k3, PS) yielded a target mRNA inhibition (KARPAS-229, 4 µM) of 0%.

For the sequence GGTGAGTAGGACGAGT (sugars k3 d10 k3, PS), the target mRNA inhibition (KARPAS-229, 4 µM) was determined as 48%.

Consider “GTTCTTGGACTCTCAA (sugars kkkddddddddkekek, PS)”, for which the target mRNA inhibition (KARPAS-229, 4 µM) stood at 0%.

For the sequence “TATTTCTGCTCCAGGT (sugars k3 d9 k3 e1, PS)”, the target mRNA inhibition is 46% (KARPAS-229, 0.44444 µM); 52% (KARPAS-229, 1.33333 µM); 45% and 67% (KARPAS-229, 4 µM); 74% (KARPAS-229, 12 µM).

“ACCATTCTATGCCTTT (sugars kkdddddddddkekek, PS)”: the target mRNA inhibition (KARPAS-229, 4 µM) worked out at 40%.

With “CCAATTTTGCATTCCA (sugars k3 d9 k3 e1, PS)”, the target mRNA inhibition reads like this: (KARPAS-229, 0.44444 µM) 61% and 54% and 62%; (KARPAS-229, 1.33333 µM) 79% and 75% and 82%; (KARPAS-229, 12 µM) 88% and 91%.

Take TCAGCTTTCTTGTCTA (sugars k3 d10 k3, PS): the target mRNA inhibition (KARPAS-229, 4 µM) was 15%.

For the setting “KARPAS-229, 4 µM”, “ATCACCACTGTGTACC (sugars kkkdddddddddkeke, PS)” displayed a target mRNA inhibition of 0%.

Where the note is “KARPAS-229, 4 µM”, “ATTTCTGCTCCAGGTT (sugars kddddddddddkekek, PS)” returned a target mRNA inhibition of 39%.

“CATTCCATATACACAC (sugars kkddddddddddkeke, PS)” yielded a target mRNA inhibition (KARPAS-229, 4 µM) of 30%.

“GGTTCTTGGACTCTCA (sugars kekdddddddddeekk, PS)”: the target mRNA inhibition (KARPAS-229, 0.44444 µM) is 31%; the target mRNA inhibition (KARPAS-229, 1.33333 µM) was 44%; the target mRNA inhibition (KARPAS-229, 4 µM) was 60% and 66%; the target mRNA inhibition (KARPAS-229, 12 µM) worked out at 81%.

Where the note is “KARPAS-229, 4 µM”, “GCTGTCACATCTCCAC (sugars kekdddddddddeekk, PS)” yielded a target mRNA inhibition of 0%.

Take “GTCTTTGAGGTCTGGG (sugars kkddddddddkekekk, PS)”: the target mRNA inhibition (KARPAS-229, 4 µM) came out at 34%.

“TCCAATTTTGCATTCC (sugars kddddddddddkekek, PS)”: the target mRNA inhibition (KARPAS-229, 4 µM) was 37%.

With “CCTTCTGCAGGGAGTC (sugars kddddddddddkekek, PS)”, the target mRNA inhibition (KARPAS-229, 4 µM) stood at 0%.

As to “TCACCACTGTGTACCC (sugars kkdddddddddkdkdk, PS)”, where the note is “KARPAS-229, 4 µM”, the target mRNA inhibition worked out at 0%.

As for TTGTCTAGTGTCATGG (sugars k3 d10 k3, PS), the target mRNA inhibition is 37% (KARPAS-229, 0.44444 µM); 60% and 70% (KARPAS-229, 4 µM); 84% (KARPAS-229, 12 µM).

Under “KARPAS-229, 4 µM”, “TTATTTCTGCTCCAGG (sugars kkddddddddkekekk, PS)” came in with a target mRNA inhibition of 0%.

“CAATGCAACATCCATC (sugars kkddddddddkekekk, PS)”: the target mRNA inhibition (KARPAS-229, 4 µM) was determined as 0%.

For the sequence “TGAGTCTCAAACCAGG (sugars kkdddddddddkdkdk, PS)”, the target mRNA inhibition (KARPAS-229, 4 µM) was found to be 0%.

In turn, “GGTCTTTGAGGTCTGG (sugars kkdddddddddkdkdk, PS)” yielded a target mRNA inhibition (KARPAS-229, 4 µM) of 56%.

With “GCTTGGTCTTGACCTC (sugars kkkddddddddkekek, PS)”, the target mRNA inhibition (KARPAS-229, 4 µM) was 0%.

Consider “GGTTCTTGGACTCTCA (sugars k3 d9 k3 e1, PS)”, for which the target mRNA inhibition (KARPAS-229, 4 µM) is 0%.

In turn, “TCCAATTTTGCATTCC (sugars kdddddddddkekeke, PS)” came in with a target mRNA inhibition (KARPAS-229, 4 µM) of 6%.

Turning to AGACTTTTTGCTCTAA (sugars k3 d10 k3, PS), under “KARPAS-229, 4 µM”, the target mRNA inhibition stood at 0%.

As for “GGTCTTGACCTCCCGC (sugars kkkdddddddddkeke, PS)”, the target mRNA inhibition (KARPAS-229, 4 µM) worked out at 7%.

On to “GTTGAATTTTGTGACT (sugars k3 d9 k3 d1, PS)”, for which, where the note is “KARPAS-229, 4 µM”, the target mRNA inhibition is 0%.

For the setting “KARPAS-229, 4 µM”, “GTTCTTGGACTCTCAA (sugars kdddddddddkekeke, PS)” gave a target mRNA inhibition of 0%.

“ACCACTGTGTACCCCA (sugars kkkdddddddddkeke, PS)” gave a target mRNA inhibition (KARPAS-229, 4 µM) of 39%.
